Measured values published in US20070142367A1, “METHOD AND MEDICINE FOR TREATING GASTROINTESTINAL DISORDER INCLUDING FECAL INCONTINENCE” (priority 2003, published 2007).

Columns and labels:
[1] = test system: human having a gastrointestinal disorder that includes fecal incontinence; assay: Treatment of ambulatory patients having fecal incontinence with daily oral medicine (case examples); assay type: in vivo; conditions: Example 3: person, sprain lumbar spine, 75 mg imipramine pamoate daily without stool softener, after several days
Text: (§1) The patient takes TYLOX, oxycontin, neurotin, aspirin, and anti-coagulants.

human patient = assay: Side effects noted in patients under daily oral treatment (case examples); conditions: Example 3: 75 mg imipramine pamoate daily without stool softener
Text: as §1

Which results are given for `CN(C)CCCN1c2ccccc2CCc2ccccc21.CN(C)CCCN1c2ccccc2CCc2ccccc21.O=C(O)c1cc2ccccc2c(Cc2c(O)c(C(=O)O)cc3ccccc23)c1O` [imipramine pamoate, 5-[3-(dimethylamino)propyl]-10,11-dihydro-5H-dibenzazepine 4,4-methlyenebis-(3-hydroxy-2-napthoate)]?
bladder and bowel functions as noted by patient [1]: full control of bladder and bowel functions; side effects (human patient): develops constipation
